# Assay results reported in patent publication US10189826B2, “Heterocyclic compounds and methods of use” (Medivation Technologies LLC, priority 2015, dated 2019).
# Where a name gives a salt, the structure may show the parent alone. Read-outs that look alike come from different tables or passages of the source.
# What was measured:
# [1] = Cytotoxicity assay (LDH release) in HepG2_LSSprom cells; type: cell-based; details: human, HepG2 LSSprom cells, LDH release; for IC50 at 24 h: 24 h treatment; for IC50 at 6 h: 6 h treatment
# Protocol: (§1) HepG2_LSSprom cells (SwitchGear Genomics, cat# C711010L) were cultured in DMEM with 10% of fetal bovine serum (FBS), supplemented with Puromycin (1 μg/mL), 1% Penicillin/Streptomycin (Pen-Strep), 37° C., humidified, 95% air and 5% CO2. Culture media was refreshed every 2 or 3 days. Cells were used between passage number 6-12.
# For cytotoxicity assays, cells were plated out at 20,000 cells/well in transparent 96 well plates in DMEM plus 10% FBS and 1% Pen-Strep without puromycin. After 1 day, cells were treated with Compound by diluting in culture medium without FBS to a final concentration of 0.625, 1.25, 2.5, 3.75, 5 and 10 μM. Compound was prepared by dilutions of 10 mM stock aliquots. As a negative control culture medium was used without FBS plus DMSO. As maximum LDH release control (Lysis control) a lysis buffer provided by the kit manufacturer was used. Treatments with Compound were maintained for 6 h, or 24 h, in cell culture medium without serum until the cytotoxicity assay was started.
# The cytotoxicity assay was performed according to the manufacturer's instructions. As maximum LDH release control (Lysis control) 3 wells per plate were treated with 10 μL of lysis buffer 45 min before the treatment was over. Briefly, after the 6 h, or 24 h, of treatment, 50 μL of media from each well was transferred to a new 96-well plate. To the transferred media, 50 μL of reconstituted substrate mix was added. The plates were covered from light and incubated at RT for 10 min. Then, 50 μL of stop solution was added to each well. The plates were then read using a Synergy 4 (Biotek) equipment recording the absorbance at 490 nm.
# (§2) Five independent experiments were carried out for both luciferase and cytotoxicity assay. In each experiment, three wells were use per condition and the results are represented as means±SEM.
# For cytotoxicity assay, Lysis control was taken as 100%/o of LDH release. The vehicle values were taken as basal LDH release and were subtracted to all the treatments (including vehicle itself) having this value as 0% of LDH release. The LDH release for the treatments was calculated respect to the 100% of LDH release of Lysis control normalized against vehicle. All the negatives values were taken as 0% of cytotoxicity. The graphics were made using the Graph Prism ver. 6.05 software.
# [2] = test system: SREBP-2 transcriptional activity (SREBP2 cleavage) in HepG2_LSSprom cells; test: Luciferase reporter driven by a SREBP-2 specific promoter in HepG2_LSSprom cells; type: cell-based
# Protocol: Dose response effects were measured of Compounds on the transcriptional activity of a Luciferase reporter driven by a SREBP-2 specific promoter in HepG2_LSSprom cells.
# as §1
# For luminescence assays, cells were plated out at 20,000 cells/well in white 96 well plates in DMEM plus 10% FBS and 1% Pen-Strep without puromycin. After 1 day, cells were treated with Compound by diluting the drug in culture medium without FBS to a final concentration of 0.625, 1.25, 2.5, 3.75, 5 and 10 μM. Drug was prepared by dilutions of 10 mM stock aliquots. As control was used culture medium without FBS plus DMSO. Treatments with Compound were maintained for 6 h, or 24 h, until the luciferase assay was carried out.
# After 6 h of treatments with Compound, the luciferase assay was performed. Briefly, the assay solution (buffer+substrate) was prepare just prior to use. To each well 100 μL of assay solution was added. The 96-well plate was then gently mix for 2 min and incubated for 30 min at RT protected from light. The luminescence was read using a Synergy 4 (Biotek) equipment recording luminescence with sensibility set up at 150.
# as §2
# For luciferase assay, Vehicle (no treatment) was taken as 100% of luciferase activity. This value represents the SREBP-2 transcriptional activity for the vehicle condition and was taken as 100% of SREBP-2 cleaved. The percentage for each treatment was calculated normalizing against the vehicle control. The graphics were made using the GraphPad Prism ver. 6.05 software. Half of maximal inhibitory concentration (IC50) of the effect of Compound on SREBP was obtain by nonlinear fit regression of mean normalized values vs. Compound concentration using the log(inhibitor) vs. response−Variable slope (four parameters) tool.
# [3] = 24 h, 24 h treatment, HepG2_LSSprom cells, read-out: SREBP2 Cleavage (IC50 μM) 24 h
# [4] = 24 h, read-out: SREBP2 Cleavage (IC50 μM) 24 h
# [5] = 6 h, 6 h treatment, HepG2_LSSprom cells, read-out: SREBP2 Cleavage (IC50 μM) 6 h
Compound,"IC50 [2, 3]","IC50 [2, 5]",IC50 at 24 h [1],"IC50 [2, 4]",IC50 at 6 h [1]
"CC(C)(C)c1cc(-c2csc(-c3ccc(C(=O)N4CCC[C@](C)(O)C4)cc3Cl)c2)ccn1 [Compound 101a, [4-[4-(2-tert-butyl-4-pyridyl)-2-thienyl]-3-chloro-phenyl]-[(3S)-3-hydroxy-3-methyl-1-piperidyl] methanone hydrochloride]",0.15 µM,,> 10 µM,,
"CN1CCc2cc(-c3csc(-c4ccnc(C(C)(C)C)c4)c3)ccc2C1=O [Compound 26, 6-[5-(2-tert-butylpyridin-4-yl)thiophen-3-yl]-2-methyl-1,2,3,4-tetrahydroisoquinolin-1-one]",> 3 µM,,> 10 µM,,
"CC(C)(C)C(=O)NC1CCN(C(=O)c2ccc(-c3csc(-c4ccnc(C(C)(C)C)c4)c3)c(Cl)c2)CC1 [Compound 76, N-(1-{4-[5-(2-tert-butylpyridin-4-yl)thiophen-3-yl]-3-chlorobenzoyl}piperidin-4-yl)-2,2-dimethylpropanamide]",1.6 µM,,> 10 µM,,
"CC(C)N1CCc2cc(-c3csc(-c4ccnc(C(C)(C)C)c4)c3)ccc2C1=O [Compound 35, 6-[5-(2-tert-butylpyridin-4-yl)thiophen-3-yl]-2-(propan-2-yl)-1,2,3,4-tetrahydroisoquinolin-1-one]",2.4 µM,,> 10 µM,,
CN1C2CCC1CC(NC(=O)c1ccc(-c3csc(-c4ccnc(C(C)(C)C)c4)c3)c(Cl)c1)C2 (stereo not drawn) [Compound 62],,,> 10 µM,> 3 µM,
"CC(C)(C)c1cc(-c2cc(-c3ccc(C(=O)Nc4ccccc4)cc3Cl)cs2)ccn1 [Compound 23, 4-[5-(2-tert-butylpyridin-4-yl)thiophen-3-yl]-3-chloro-N-phenylbenzamide]",,,> 10 µM,0.48 µM,
CC(C)(C)OC(=O)NC1CCN(C(=O)c2ccc(-c3csc(-c4ccnc(C(C)(C)C)c4)c3)c(Cl)c2)C1 (stereo not drawn) [Compound 90],0.37 µM,,> 10 µM,,
"CC(=O)NC1CCN(C(=O)c2ccc(-c3csc(-c4ccnc(C(C)(C)C)c4)c3)c(Cl)c2)CC1 [Compound 38, N-(1-{4-[5-(2-tert-butylpyridin-4-yl)thiophen-3-yl]-3-chlorobenzoyl}piperidin-4-yl) acetamide]",2.1 µM,,> 10 µM,,
"CC(C)(C)c1cc(-c2csc(-c3ccc(C(=O)N4CC[C@H](N)C4)cc3Cl)c2)ccn1 [Compound 96b, (3S)-1-{4-[4-(2-tert-butylpyridin-4-yl)thiophen-2-yl]-3-chlorobenzoyl}pyrrolidin-3-amine]",0.6 µM,,> 10 µM,,
"Cc1sc(-c2ccnc(C(C)(C)C)c2)cc1-c1ccc(C(=O)Nc2ccccc2)cc1Cl [Compound 67, 4-[5-(2-tert-butylpyridin-4-yl)-2-methylthiophen-3-yl]-3-chloro-N-phenyl benzamide]",,,> 10 µM,4.7 µM,
"COC1CCCN(C(=O)c2ccc(-c3cc(-c4ccnc(C(C)(C)C)c4)cs3)c(Cl)c2)C1 (stereo not drawn) [Compound 99, 2-tert-butyl-4-{5-[2-chloro-4-(3-methoxypiperidine-1-carbonyl)phenyl]thiophen-3-yl}pyridine]",,,> 10 µM,0.051 µM,
"CC(C)(C)NC(=O)c1ccc(-c2csc(-c3ccnc(C(C)(C)C)c3)c2)c(Cl)c1 [Compound 15, N-tert-butyl-4-[5-(2-tert-butylpyridin-4-yl)thiophen-3-yl]-3-chlorobenzamide]",,> 5 µM,,,
"CC(C)(C)c1cc(-c2cc(-c3ccc(C(=O)NC4CC4)cc3Cl)cs2)ccn1 [Compound 14, 4-[5-(2-tert-butylpyridin-4-yl)thiophen-3-yl]-3-chloro-N-cyclopropylbenzamide]",,3.17 µM,,,
"O=C(c1ccc(-c2csc(-c3ccnc(N4CCCCC4)c3)n2)c(Cl)c1)N1CCOCC1 [Compound 17, 4-(3-chloro-4-{2-[2-(piperidin-1-yl)pyridin-4-yl]-1,3-thiazol-4-yl}benzoyl) morpholine]",> 3 µM,> 3 µM,,,

# Now from value to compound, other results behind:
"IC50 [2, 3]","IC50 [2, 5]",Compound,IC50 at 24 h [1],"IC50 [2, 4]",IC50 at 6 h [1]
0.54 µM,> 10 µM,"CC(C)(C)c1cc(-c2cc(-c3ccc(C(=O)N4CCC(F)(F)CC4)cc3Cl)cs2)ccn1 [Compound 13, 2-tert-butyl-4-{4-[2-chloro-4-(4,4-difluoropiperidine-1-carbonyl)phenyl]thiophen-2-yl}pyridine]",,,> 10 µM
> 3 µM,> 3 µM,"CC(O)CNC(=O)c1ccc(-c2csc(-c3ccnc(N4CCCCC4)c3)n2)c(Cl)c1 (stereo not drawn) [Compound 18, 3-chloro-N-(2-hydroxypropyl)-4-{2-[2-(piperidin-1-yl)pyridin-4-yl]-1,3-thiazol-4-yl}benzamide]",,,
0.74 µM,,"CC(C)(C)c1cc(-c2csc(-c3ccc(C(=O)N4CCC[C@@H](N)C4)cc3Cl)c2)ccn1 [Compound 74a, (R)-(3-aminopiperidin-1-yl)(4-(4-(2-(tert-butyl)pyridin-4-yl)thiophen-2-yl)-3-chlorophenyl)methanone]",> 10 µM,,
0.5 µM,> 10 µM,"CC(C)(C)c1cc(-c2cc(-c3ccc(C(=O)N4CCC(F)(F)C4)cc3Cl)cs2)ccn1 [Compound 12, 2-tert-butyl-4-{4-[2-chloro-4-(3,3-difluoropyrrolidine-1-carbonyl)phenyl]thiophen-2-yl}pyridine]",,,> 10 µM
0.55 µM,,"CC(C)(C)c1cc(-c2cc(-c3ccc(C(=O)N4CCC(O)CC4)cc3Cl)cs2)ccn1 [Compound 57, 1-{4-[5-(2-tert-butylpyridin-4-yl)thiophen-3-yl]-3-chlorobenzoyl}piperidin-4-ol]",> 10 µM,,
0.36 µM,,"CC(C)(C)C(=O)NC1CCCN(C(=O)c2ccc(-c3csc(-c4ccnc(C(C)(C)C)c4)c3)c(Cl)c2)C1 (stereo not drawn) [Compound 55, N-(1-{4-[5-(2-tert-butylpyridin-4-yl)thiophen-3-yl]-3-chlorobenzoyl}piperidin-3-yl)-2,2-dimethylpropanamide]",> 10 µM,,
0.52 µM,,"Cc1sc(-c2ccc(C(=O)N3CCC[C@H](NC(=O)OC(C)(C)C)C3)cc2Cl)cc1-c1ccnc(C(C)(C)C)c1 [Compound 79b, tert-butyl N-[(3S)-1-{4-[4-(2-tert-butylpyridin-4-yl)-5-methylthiophen-2-yl]-3-chlorobenzoyl}piperidin-3-yl]carbamate]",> 10 µM,,
1.3 µM,,"CC(C)(C)C(=O)N1CCN(C(=O)c2ccc(-c3csc(-c4ccnc(C(C)(C)C)c4)c3)c(Cl)c2)CC1 [Compound 46, 1-(4-{4-[5-(2-tert-butylpyridin-4-yl)thiophen-3-yl]-3-chlorobenzoyl}piperazin-1-yl)-2,2-dimethylpropan-1-one]",> 10 µM,,
0.13 µM,,"CC(C)CCn1nccc1-c1csc(-c2ccc(C(=O)N3CCCC(O)C3)cc2Cl)c1 (stereo not drawn) [Compound 104, [3-chloro-4-[4-(2-isopentylpyrazol-3-yl)-2-thienyl]phenyl]-(3-hydroxy-1-piperidyl)methanone]",> 10 µM,,
> 3 µM,,"CN1CCN(C(=O)c2ccc(-c3csc(-c4ccnc(C(C)(C)C)c4)c3)c(Cl)c2)CC1 [Compound 10, 1-{4-[5-(2-tert-butylpyridin-4-yl)thiophen-3-yl]-3-chlorobenzoyl}-4-methylpiperazine]",,,
> 3 µM,,"CC(C)(C)c1cc(-c2cc(-c3ccc(C(=O)N4CCS(=O)(=O)CC4)cc3Cl)cs2)ccn1 [Compound 20, 4-{4-[5-(2-tert-butylpyridin-4-yl)thiophen-3-yl]-3-chlorobenzoyl}-1λ^6,4-thiomorpholine-1,1-dione]",,,
